Data reported in US5278181A, “Soluble alkyl[5-[amino (phenyl)methyl]-1H-benzimidazol-2-yl] carbamate anthelmintics” (priority 1992, dated 1994).
Several values for one entry are separate records, joined by “and”; a condition that tells them apart may be missing. Identical values can stand only once.

How the values were obtained:
[1] = system: Brugia pahangi; assay: Antifilarial dual infection screen in jirds: adult B. pahangi burden; format: in vivo, in Mongolian jirds
Description: (§1) Dual infections of the filarial worms Brugia pahangi and Acanthocheilonema viteae in jirds are used routinely for antifilarial screening [McCall, J. W., McTier, T. L., and Rowan, S. J., "In vivo models for evaluating potential antifilarial agents", Onchocerciasis/Filariasis (Proceedings of a Symposium sponsored by the World Health Organization), Kalamazoo, Mich., Apr. 8-10, 23-24 (1986)].
For this dual infection screen, male Mongolian jirds weighing 50-60 g are infected SC with 10 (5 male and 5 female) adult A. viteae, transplanted under sodium pentobarbital anesthesia (48 mg/kg) from donor hamsters infected SC 8 weeks earlier. Two weeks later, 20 (10 male and 10 female) adult B. pahangi, taken from donor jirds infected IP 8 weeks earlier, are transplanted into the peritoneal cavity of each jird under sodium pentobarbital anesthesia. After an additional week, when the jirds have acceptable levels of microfilaremia, they are randomly allocated to treatment groups of 3 animals each and a nontreated group of 4-6 animals. Microfilaremia is determined on days 0 (just prior to the first dose), 4 and 56 post-treatment. Unless indicated otherwise, compounds are suspended in hydroxyethylcellulose (0.5%) - Tween 80 (0.1%) and administered SC at 100 mg/kg/day for 5 consecutive days. All jirds are killed on day 56 post-treatment to determine the effects of drugs on adults of A. viteae and B. pahangi. Live worms are identified as to species, noted as to sex, and counted. The number of dead and/or encapsulated worms is also recorded. A reduction of ≥80% in microfilaremia or ≥50% in adult worm burden (either species) compared with pre-treatment microfilaremia or non-treated control worm burden, respectively, is considered to be significant. For secondary testing with this dual infection screen, groups of 7 animals each are used. For oral dosing, drugs are dissolved or suspended in hydroxyethylcellulose - Tween 80 and administered by gavage.

[2] = system: Brugia pahangi; assay: Antifilarial effect in beagle dogs infected with Brugia pahangi; format: in vivo; conditions: for Dogs cured/Treated / Percent reduction Macrofilariae / Percent reduction Microfilariae: PO
Description: The infective larvae of B. pahangi were produced and collected as described by McCall [J. Georgia Entomol. Soc. 16:283-293, (1981)]. The dogs were given 100 L3 of B. pahangi by subcutaneous injection (SC) into the dorsum of each hind paw or 200 L3 in one hind paw (i.e., a total inoculum of 200 L3 per dog).
The dogs were randomly allocated to treatment groups containing 4 dogs. The dogs were divided by sex and ranked by declining baseline microfilarial counts (average count based on the 5 bleedings made before the day of treatment). Those dogs which were amicrofilaremic or had very few microfilariae were excluded from the trial. Of the remaining dogs, those with the highest baseline microfilaremias were assigned to seven-dog replicates. The sex of the dogs within three of the replicates was the same, while the fourth replicate contained dogs of both sexes. The dogs of a given sex with the highest levels of microfilaremia were placed in the same replicate. The next set of dogs of that sex with the next highest levels of microfilaremia was assigned to the next replicate, and so on until all of the replicates were filled. The dogs within each complete replicate were assigned to test groups using a table of random numbers [Ostle and Mensing, Statistics in Research, Third Edition, Iowa State University Press, Ames, Iowa, pp. 560-563, (1975)]. The test groups were likewise assigned to either control or treatment groups using the table of random numbers.
The first day of treatment, day 0, was approximately 144 days after infection. Drugs were administered orally as a 10% suspension in HEC-Tween 80 or in soft gelatin capsules. Drugs were administered intramuscularly or subcutaneously as a 10% suspension in peanut oil or in HEC-Tween 80. Groups of four dogs served in sham-treated controls in each experiment. All of the treatments were given by IM injection in the dorsal lumbar muscles.
All dogs were observed frequently during each day of treatment and daily throughout the remainder of the study for any signs of reactions. In addition, the hair was shaved at the injection sites to facilitate the observation of possible tissue irritation resulting from treatment.
Blood was collected from each dog on days 51, 43, 27, 19, and 5 before treatment to determine baseline microfilaremias and allocate the dogs to treatment groups. Blood was then collected from all dogs on the day before treatment on day -1, on days 7, 10, 14, 21, 28, 35, 42, 49, and 56 days after treatment. All bleedings were done at approximately the same time of day (11:00-12:00 E.S.T.). Two 20-μl blood films were prepared from each sample and stained with giemsa. Microfilarial counts were made from the 2 blood films.
The dogs were euthanized for necropsy either two or six months after the first day of treatment. Just prior to euthanasia, the dogs were given a subcutaneous injection (SC) of a two percent solution of Evans blue into the dorsum of both hind paws in order to help delineate the lymphatic vessels. This was followed at least 30 minutes later with a lethal dose of Fatal-Plus® (Vortech Pharmaceuticals, Dearborn, Mich.). A limited necropsy was performed on each dog with examination of the afferent and efferent lymphatics of both hindlimbs and the popliteal, inguinal, internal and external iliac, and lumbar lymph nodes. Any live or dead worms seen were removed. These vessels and lymph nodes were removed, teased, and soaked overnight in normal saline to allow any worms to migrate out of the tissues. The condition of the worms, their sex and number, and the location from which they were recovered were noted.
Effectiveness against the adult parasites was determined as follows: [formula] Effectiveness against microfilariae for a given day after treatment was determined as follows: [formula]
The adult B. pahangi counts and the microfilarial counts were compared using a one way analysis of variance (ANOVA). […]

[3] = system: B. pahangi and A. viteae; assay: Antifilarial activity in jirds, dual infection, summary in words; format: in vivo; conditions: both oral and parenteral routes
Description: as §1
For this dual infection screen, male Mongolian jirds weighing 50-60 g are infected SC with 10 (5 male and 5 female) adult A. viteae, transplanted under sodium pentobarbital anesthesia (48 mg/kg) from donor hamsters infected SC 8 weeks earlier. Two weeks later, 20 (10 male and 10 female) adult B. pahangi, taken from donor jirds infected IP 8 weeks earlier, are transplanted into the peritoneal cavity of each jird under sodium pentobarbital anesthesia. After an additional week, when the jirds have acceptable levels of microfilaremia, they are randomly allocated to treatment groups of 3 animals each and a nontreated group of 4-6 animals. Microfilaremia is determined on days 0 (just prior to the first dose), 4 and 56 post-treatment. […] Live worms are identified as to species, noted as to sex, and counted. The number of dead and/or encapsulated worms is also recorded. […]

[4] = 50(34 free base) mg/kg/day bid × 5, gelatin capsules, not significantly different from control
[5] = 100(78 free base) mg/kg/day bid × 5, gelatin capsules
[6] = 200(155 free base) mg/kg/day bid × 5, HEC-Tween 80
[7] = 200(155 free base) mg/kg/day bid × 5, gelatin capsules

## COC(=O)Nc1nc2cc(C(N)c3ccc(F)cc3)ccc2[nH]1.Cl.Cl (racemic) [Example 2, Methyl (±)-[5-[Amino(4Fluorophenyl)Methyl]-1H-Benzimidazol-2-yl]Carbamate Dihy drochloride Salt]
[1]; 1.56 mg/kg/day × 5 days, SC, day 56
  % Macrofilarial reduction, B. pahangi: 22%
[1]; 3.13 mg/kg/day × 5 days, SC, day 56, 3.13 mg/kg/day
  % Macrofilarial reduction, B. pahangi: 84% and 88%
[1]; 6.25 mg/kg/day × 5 days, SC, day 56, 6.25 mg/kg/day
  % Macrofilarial reduction, B. pahangi: 96% and 98%
[1]; 12.5 mg/kg/day × 1 day, SC, day 56
  % Macrofilarial reduction, B. pahangi: 72%
[1]; 12.5 mg/kg/day × 5 days, SC, day 56
  % Macrofilarial reduction, B. pahangi: 100%
[1]; 25 mg/kg/day × 1 day, SC, day 56
  % Macrofilarial reduction, B. pahangi: 100%
[1]; 25 mg/kg/day × 5 days, SC, day 56
  % Macrofilarial reduction, B. pahangi: 100%
[1]; 75 mg/kg/day × 5 days, oral, day 56
  % Macrofilarial reduction, B. pahangi: 30%
[1]; 100 mg/kg/day × 5 days, oral, day 56
  % Macrofilarial reduction, B. pahangi: 32%
[2]; 50(34 free base) mg/kg/day bid × 5, gelatin capsules
  Dogs cured/Treated: 0/4
[2]; [4]
  Percent reduction Macrofilariae: 71%
  Percent reduction Microfilariae: 89%
[2]; [5]
  Dogs cured/Treated: 0/4
  Percent reduction Microfilariae: 86%
[2]; 100(78 free base) mg/kg/day bid × 5, gelatin capsules, not significantly different from control
  Percent reduction Macrofilariae: 23%
[2]; 200(155 free base) mg/kg/day bid × 1, HEC-Tween 80
  Percent reduction Macrofilariae: 97%
[2]; 200(155 free base) mg/kg/day bid × 1, HEC-Tween 80, necropsied 6 months
  Dogs cured/Treated: 1/3
[2]; 200(155 free base) mg/kg/day bid × 1, HEC-Tween 80, not significantly different from control
  Percent reduction Microfilariae: 77%
[2]; 200(155 free base) mg/kg/day bid × 3, HEC-Tween 80
  Percent reduction Macrofilariae: 90%
[2]; 200(155 free base) mg/kg/day bid × 3, HEC-Tween 80, necropsied 6 months
  Dogs cured/Treated: 0/3
[2]; 200(155 free base) mg/kg/day bid × 3, HEC-Tween 80, not significantly different from control
  Percent reduction Microfilariae: 71%
[2]; [6]
  Percent reduction Macrofilariae: 100%
  Percent reduction Microfilariae: 100%
[2]; 200(155 free base) mg/kg/day bid × 5, HEC-Tween 80, necropsied 6 months
  Dogs cured/Treated: 3/3
[2]; [7]
  Percent reduction Macrofilariae: 99%
  Percent reduction Microfilariae: 100%
[2]; 200(155 free base) mg/kg/day bid × 5, gelatin capsules, necropsied 6 months
  Dogs cured/Treated: 5/6
[2]; 200(155 free base) mg/kg/day × 1, HEC-Tween 80
  Percent reduction Macrofilariae: 79%
[2]; 200(155 free base) mg/kg/day × 1, HEC-Tween 80, necropsied 6 months
  Dogs cured/Treated: 1/3
[2]; 200(155 free base) mg/kg/day × 1, HEC-Tween 80, not significantly different from control
  Percent reduction Microfilariae: 74%
[2]; 200(155 free base) mg/kg/day × 3, HEC-Tween 80
  Percent reduction Macrofilariae: 97%
[2]; 200(155 free base) mg/kg/day × 3, HEC-Tween 80, necropsied 6 months
  Dogs cured/Treated: 1/3
[2]; 200(155 free base) mg/kg/day × 3, HEC-Tween 80, not significantly different from control
  Percent reduction Microfilariae: 78%
[2]; oral, 200 mg/kg/day (155 base equivalent) for 1, 3 or 5 days
  cure of B. pahangi infections: cured dogs of B. pahangi infections
[3]
  antifilarial activity in jirds: outstanding antifilarial activity
